Source: ChEMBL document CHEMBL5634077, “Recent advances in 1,2,3- and 1,2,4-triazole hybrids as antimicrobials and their SAR: A critical review” (2023)
Converted amounts (≈) assume the structure as drawn. Blank lines part the entries; values can stand above or below the compound they belong to.

Experiments:
Micrococcus luteus = assay: Antibacterial activity against Micrococcus luteus IFC 12708 assessed as reduction in microbial growth; format: functional
Salmonella typhimurium = assay: Antibacterial activity against Salmonella typhimurium SL1344 assessed as reduction in microbial growth; format: functional, Salmonella enterica subsp. enterica serovar Typhimurium; settings: Salmonella enterica
Bacillus subtilis [1] = assay: Antibacterial activity against Bacillus subtilis ATCC 6633 assessed as reduction in microbial growth; format: functional
Staphylococcus aureus [2] = assay: Antibacterial activity against Staphylococcus aureus ATCC 6538p assessed as reduction in microbial growth; format: functional
Escherichia coli [3] = assay: Antibacterial activity against Escherichia coli ATCC 25922 assessed as reduction in microbial growth; format: functional
Proteus vulgaris [4] = assay: Antibacterial activity against Proteus vulgaris ATCC 3851 assessed as reduction in microbial growth; format: functional
Proteus vulgaris [5] = assay: Antibacterial activity against Proteus vulgaris RCMB 004 assessed as diameter of inhibition zone incubated for 24 hrs by well diffusion assay; format: functional
Escherichia coli [6] = assay: Antibacterial activity against Escherichia coli RCMB 010052 assessed as diameter of inhibition zone incubated for 24 hrs by well diffusion assay; format: functional
Bacillus subtilis [7] = assay: Antibacterial activity against Bacillus subtilis RCMB 010069 assessed as diameter of inhibition zone incubated for 24 hrs by well diffusion assay; format: functional
Geotrichum candidum = assay: Antifungal activity against Geotrichum candidum RCMB 052006 assessed as diameter of inhibition zone incubated for 24 hrs by well diffusion assay; format: functional
Staphylococcus aureus [8] = assay: Antibacterial activity against Staphylococcus aureus assessed as diameter of inhibition zone incubated for 24 hrs by well diffusion assay; format: functional
Aspergillus flavus = assay: Antifungal activity against Aspergillus flavus assessed as diameter of inhibition zone incubated for 24 hrs by well diffusion assay; format: functional
Staphylococcus aureus [9] = assay: Antibacterial activity against Staphylococcus aureus ATCC 29213 assessed as reduction in bacterial growth by micro-broth dilution method; format: functional
Candida albicans [10] = assay: Antifungal activity against Candida albicans NCIM 2087 assessed as fungal growth inhibition; format: functional
Aspergillus niger = assay: […] activity against Aspergillus niger NCIM 2191 assessed as reduction in […] by micro-broth dilution method; format: functional
Escherichia coli [11] = assay: Antibacterial activity against Escherichia coli ATCC 8739 assessed as reduction in bacterial growth by micro-broth dilution method; format: functional
Pseudomonas aeruginosa [12] = assay: Antibacterial activity against Pseudomonas aeruginosa MCCB 0035 assessed as reduction in bacterial growth by micro-broth dilution method; format: functional
Aspergillus fumigatus [13] = assay: […] activity against Aspergillus fumigatus NCIM 2081 assessed as reduction in […] by micro-broth dilution method; format: functional
Cryptococcus neoformans [14] = assay: Antifungal activity against Cryptococcus neoformans assessed as fungal growth inhibition by CLSI based method; format: functional
Candida albicans [15] = assay: Antifungal activity against Candida albicans assessed as fungal growth inhibition by CLSI based method; format: functional
Candida albicans [16] = assay: Antifungal activity against Candida albicans Y0109 assessed as reduction in fungal growth incubated for 24 hrs by NCCLS based assay; format: functional
Nakaseomyces glabratus = assay: Antifungal activity against Candida glabrata 537 assessed as reduction in fungal growth incubated for 72 hrs by NCCLS based assay; format: functional
Nannizzia gypsea = assay: Antifungal activity against Microsporum gypseum assessed as reduction in fungal growth incubated for 5 to 7 days by NCCLS based assay; format: functional; settings: time 5-7 day
Aspergillus fumigatus [17] = assay: Antifungal activity against Aspergillus fumigatus 7544 assessed as reduction in fungal growth incubated for 5 to 7 days by NCCLS based assay; format: functional; settings: time 5-7 day
Candida albicans [18] = assay: Antifungal activity against Candida albicans SC5314 assessed as reduction in fungal growth incubated for 24 hrs by NCCLS based assay; format: functional
Trichophyton rubrum = assay: Antifungal activity against Trichophyton rubrum assessed as reduction in fungal growth incubated for 5 to 7 days by NCCLS based assay; format: functional; settings: time 5-7 day
Cryptococcus neoformans [19] = assay: Antifungal activity against Cryptococcus neoformans 32609 assessed as reduction in fungal growth incubated for 72 hrs by NCCLS based assay; format: functional
Candida albicans [20] = assay: Antifungal activity against Candida albicans ATCC 90028 assessed as growth inhibition incubated for 24 hrs; format: functional
Pseudomonas aeruginosa [21] = assay: Antibacterial activity against Pseudomonas aeruginosa MTCC 1034 assessed as reduction in bacterial growth; format: functional
Bacillus subtilis [22] = assay: Antibacterial activity against Bacillus subtilis MTCC 441 assessed as reduction in bacterial growth; format: functional
Staphylococcus aureus [23] = assay: Antibacterial activity against Staphylococcus aureus assessed as diameter of inhibition zone; format: functional
Staphylococcus aureus [24] = assay: Antibacterial activity against methicillin resistant Staphylococcus aureus incubated for 20 hrs by broth microdilution method; format: functional

Structure (SMILES): Cc1c(C(=O)/C=C/c2cccnc2)nnn1-c1ccc(-n2nnc(C(=O)/C=C/c3cccnc3)c2C)cc1
diameter of the inhibition zone (DIZ) (Proteus vulgaris [5]): 17.8 mm
diameter of the inhibition zone (DIZ) (Escherichia coli [6]): 23.7 mm
diameter of the inhibition zone (DIZ) (Bacillus subtilis [7]): 29.3 mm
diameter of the inhibition zone (DIZ) (Geotrichum candidum): 19.3 mm
diameter of the inhibition zone (DIZ) (Staphylococcus aureus [8]): 17.3 mm
diameter of the inhibition zone (DIZ) (Aspergillus flavus): 18.03 mm

Structure (SMILES): C[C@@H](OCc1cc(-c2c(F)cc(F)cc2F)no1)[C@](O)(Cn1cncn1)c1ccc(F)cc1F
MIC80 (Candida albicans [16]): 0.062 µg/mL (≈ 0.129 µM)
MIC80 (Nakaseomyces glabratus): 0.125 µg/mL (≈ 0.26 µM)
MIC80 (Nannizzia gypsea): 1 µg/mL (≈ 2.08 µM)
MIC80 (Aspergillus fumigatus [17]): 4 µg/mL (≈ 8.33 µM)
MIC80 (Candida albicans [18]): 0.125 µg/mL (≈ 0.26 µM)
MIC80 (Trichophyton rubrum): 2 µg/mL (≈ 4.16 µM)
MIC80 (Cryptococcus neoformans [19]): 1 µg/mL (≈ 2.08 µM)

Structure (SMILES): Cc1c(C(=O)/C=C/c2ccccn2)nnn1-c1ccc(-n2nnc(C(=O)/C=C/c3ccccn3)c2C)cc1
diameter of the inhibition zone (DIZ) (Proteus vulgaris [5]): 24.37 mm
diameter of the inhibition zone (DIZ) (Escherichia coli [6]): 31.3 mm
diameter of the inhibition zone (DIZ) (Bacillus subtilis [7]): 32.2 mm
diameter of the inhibition zone (DIZ) (Geotrichum candidum): 24 mm
diameter of the inhibition zone (DIZ) (Staphylococcus aureus [8]): 22.02 mm
diameter of the inhibition zone (DIZ) (Aspergillus flavus): 22 mm

Structure (SMILES): CCCCNC(=O)c1nnn(-c2ccc(C)cc2)c1CCC
growth inhibition (GI) (Candida albicans [20]): 21.2%

Structure (SMILES): [N-]=[N+]=Nc1ccc(-n2cc(Cn3c(=O)sc4cc(Br)ccc43)nn2)c(Cl)c1
growth inhibition (GI) (Candida albicans [20]): 63.7%

Structure (SMILES): CCCCNC(=O)c1nnn(-c2ccc(Br)cc2)c1C
growth inhibition (GI) (Candida albicans [20]): 63.7%

Structure (SMILES): Cc1c(-c2cc(-c3c[nH]c4ccccc34)nc(NN)n2)nnn1-c1ccc(-n2nnc(-c3cc(-c4c[nH]c5ccccc45)nc(NN)n3)c2C)cc1
diameter of the inhibition zone (DIZ) (Proteus vulgaris [5]): 26.9 mm
diameter of the inhibition zone (DIZ) (Escherichia coli [6]): 33.9 mm
diameter of the inhibition zone (DIZ) (Bacillus subtilis [7]): 41.3 mm
diameter of the inhibition zone (DIZ) (Geotrichum candidum): 24.4 mm
diameter of the inhibition zone (DIZ) (Staphylococcus aureus [8]): 20.9 mm
diameter of the inhibition zone (DIZ) (Aspergillus flavus): 21.3 mm

Structure (SMILES): CCCNC(=O)c1nnn(-c2ccc(CC)cc2)c1C
growth inhibition (GI) (Candida albicans [20]): 14.1%

Structure (SMILES): CCCCC(=O)c1cc(C(=O)CCCC)cc(-n2cc(C(C)N3C(=O)C(=O)c4ccccc43)nn2)c1 (stereo not given)
diameter of the inhibition zone (DIZ) (Staphylococcus aureus [23]): 6 mm

Structure (SMILES): Cc1c(C(=O)/C=C/c2c[nH]c3ccccc23)nnn1-c1ccc(-n2nnc(C(=O)/C=C/c3c[nH]c4ccccc34)c2C)cc1
diameter of the inhibition zone (DIZ) (Proteus vulgaris [5]): 15.4 mm
diameter of the inhibition zone (DIZ) (Escherichia coli [6]): 25 mm
diameter of the inhibition zone (DIZ) (Bacillus subtilis [7]): 34.2 mm
diameter of the inhibition zone (DIZ) (Geotrichum candidum): 17.2 mm
diameter of the inhibition zone (DIZ) (Staphylococcus aureus [8]): 12 mm
diameter of the inhibition zone (DIZ) (Aspergillus flavus): 19.2 mm

Structure (SMILES): C=CCCC1CC(=O)N1Cc1cn(-c2cccc([N+](=O)[O-])c2)nn1 (stereo not given)
MIC (Pseudomonas aeruginosa [21]): 1.25 µg/mL (≈ 3.82 µM)
MIC (Bacillus subtilis [22]): 1.25 µg/mL (≈ 3.82 µM)

Structure (SMILES): COc1cc(/C=C/c2ccc(OCc3cn(CCCCC(=O)O)nn3)cc2)cc(OC)c1
MIC (Staphylococcus aureus [24]): 78.1 µg/mL (≈ 179 µM)

More lines, now with the values ahead:

MIC (Micrococcus luteus): 1.56 µg/mL
MIC (Salmonella typhimurium): 1.56 µg/mL
MIC (Bacillus subtilis [1]): 1.56 µg/mL
MIC (Staphylococcus aureus [2]): 1.56 µg/mL
MIC (Escherichia coli [3]): 1.56 µg/mL
MIC (Proteus vulgaris [4]): 1.56 µg/mL
Structure (SMILES): Cc1c(-c2nn(-c3ccccc3)cc2C2SCC(=O)N2c2cc(F)ccc2F)nnn1-c1ccccc1 (stereo not given)

MIC (Staphylococcus aureus [9]): 2 µg/mL (≈ 4.13 µM)
MIC (Candida albicans [10]): 1 µg/mL (≈ 2.07 µM)
MIC (Aspergillus niger): 2 µg/mL (≈ 4.13 µM)
MIC (Escherichia coli [11]): 2 µg/mL (≈ 4.13 µM)
MIC (Pseudomonas aeruginosa [12]): 4 µg/mL (≈ 8.26 µM)
MIC (Aspergillus fumigatus [13]): 8 µg/mL (≈ 16.5 µM)
Structure (SMILES): O=c1cc(-c2ccccc2)c2cc(Cl)ccc2n1Cc1nnc2n1N=C(c1ccccc1)CS2

MIC (Cryptococcus neoformans [14]): 0.5 µg/mL (≈ 1.4 µM)
MIC (Candida albicans [15]): 0.5 µg/mL (≈ 1.4 µM)
Structure (SMILES): O=C(c1ccc(Br)cc1)C(Cc1ccccc1)n1cncn1 (stereo not given)

MIC (Staphylococcus aureus [9]): 1 µg/mL (≈ 1.89 µM)
MIC (Candida albicans [10]): 2 µg/mL (≈ 3.78 µM)
MIC (Aspergillus niger): 4 µg/mL (≈ 7.57 µM)
MIC (Escherichia coli [11]): 2 µg/mL (≈ 3.78 µM)
MIC (Pseudomonas aeruginosa [12]): 4 µg/mL (≈ 7.57 µM)
MIC (Aspergillus fumigatus [13]): 32 µg/mL (≈ 60.6 µM)
Structure (SMILES): O=c1cc(-c2ccccc2)c2cc(Br)ccc2n1Cc1nnc2n1N=C(c1ccccc1)CS2

MIC80 (Candida albicans [16]): 0.125 µg/mL (≈ 0.274 µM)
MIC80 (Nakaseomyces glabratus): 0.5 µg/mL (≈ 1.1 µM)
MIC80 (Nannizzia gypsea): 1 µg/mL (≈ 2.19 µM)
MIC80 (Aspergillus fumigatus [17]): 4 µg/mL (≈ 8.76 µM)
MIC80 (Candida albicans [18]): 0.5 µg/mL (≈ 1.1 µM)
MIC80 (Trichophyton rubrum): 1 µg/mL (≈ 2.19 µM)
MIC80 (Cryptococcus neoformans [19]): 1 µg/mL (≈ 2.19 µM)
Structure (SMILES): COc1ccc(-c2cc(CO[C@H](C)[C@](O)(Cn3cncn3)c3ccc(F)cc3F)on2)cc1

MIC (Cryptococcus neoformans [14]): 0.5 µg/mL (≈ 1.35 µM)
MIC (Candida albicans [15]): 0.5 µg/mL (≈ 1.35 µM)
Structure (SMILES): O=C(c1ccc(F)cc1)C(C(c1ccccc1)c1ccccc1)n1cncn1 (stereo not given)

MIC80 (Candida albicans [16]): 0.062 µg/mL (≈ 0.142 µM)
MIC80 (Nakaseomyces glabratus): 0.125 µg/mL (≈ 0.286 µM)
MIC80 (Nannizzia gypsea): 1 µg/mL (≈ 2.29 µM)
MIC80 (Aspergillus fumigatus [17]): 2 µg/mL (≈ 4.57 µM)
MIC80 (Candida albicans [18]): 0.25 µg/mL (≈ 0.571 µM)
MIC80 (Trichophyton rubrum): 0.125 µg/mL (≈ 0.286 µM)
MIC80 (Cryptococcus neoformans [19]): 0.125 µg/mL (≈ 0.286 µM)
Structure (SMILES): C[C@@H](c1nc(-c2ccc(C#N)cc2)cs1)[C@](O)(Cn1cncn1)c1ccc(F)cc1F [RAVUCONAZOLE]

MIC80 (Candida albicans [16]): 0.25 µg/mL (≈ 0.541 µM)
MIC80 (Nakaseomyces glabratus): 0.5 µg/mL (≈ 1.08 µM)
MIC80 (Nannizzia gypsea): 1 µg/mL (≈ 2.16 µM)
MIC80 (Aspergillus fumigatus [17]): 8 µg/mL (≈ 17.3 µM)
MIC80 (Candida albicans [18]): 0.5 µg/mL (≈ 1.08 µM)
MIC80 (Trichophyton rubrum): 2 µg/mL (≈ 4.33 µM)
MIC80 (Cryptococcus neoformans [19]): 1 µg/mL (≈ 2.16 µM)
Structure (SMILES): C[C@@H](OCc1cc(-c2cccc(F)c2F)no1)[C@](O)(Cn1cncn1)c1ccc(F)cc1F

MIC (Pseudomonas aeruginosa [21]): 1.25 µg/mL (≈ 4 µM)
MIC (Bacillus subtilis [22]): 1.25 µg/mL (≈ 4 µM)
Structure (SMILES): C=CCCC1CC(=O)N1Cc1cn(-c2ccc(OC)cc2)nn1 (stereo not given)

MIC (Micrococcus luteus): 1.56 µg/mL
MIC (Salmonella typhimurium): 1.56 µg/mL
MIC (Bacillus subtilis [1]): 1.56 µg/mL
MIC (Staphylococcus aureus [2]): 1.56 µg/mL
MIC (Escherichia coli [3]): 1.56 µg/mL
MIC (Proteus vulgaris [4]): 1.56 µg/mL
Structure (SMILES): COc1ccc(N2C(=O)CSC2c2cn(-c3ccccc3)nc2-c2nnn(-c3ccccc3)c2C)cc1 (stereo not given)
